# US11753409B2, “Crystalline salts of a B-RAF kinase inhibitor” (Xynomic Pharmaceuticals, Inc., priority 2017, dated 2023)
# Read-outs that look alike come from different tables or passages of the source.
# Experiments:
# [1] = Intrinsic dissolution rate, rotating disc method; assay type: physicochemical
# Description: The intrinsic dissolution rate of 3-(5-((1-ethylpiperidin-4-yl)(methyl)amino)-3-(pyrimidin-5-yl)-1H-pyrrolo[3,2-b]pyridin-1-yl)-2,4-difluorophenyl)propane-1-sulfonamide salts was determined in aqueous media covering a range of pH 1.1-7.4 using the rotating disc method which maintains a constant surface area.
# The drug substance (5 mg) was compressed at 356.1 Newtons for 60 s to form a disk. These disks were mounted to sample holders which fit into a miniaturized dissolution testing apparatus. The dissolution media were stirred at 200 rpm at a temperature of 37° C. Samples were automatically withdrawn every second minute from the dissolution vessel and assayed by UV spectrophotometry.
# The intrinsic dissolution rate of N-(3-(5-((1-ethylpiperidin-4-yl)(methyl)amino)-3-(pyrimidin-5-yl)-TH-pyrrolo[3,2-b]pyridin-1-yl)-2,4-difluorophenyl)propane-1-sulfonamide monohydrochloride salt in various media was measured in media at various pH values.
# The intrinsic dissolution rate of N-(3-(5-((1-ethylpiperidin-4-yl)(methyl)amino)-3-(pyrimidin-5-yl)-1H-pyrrolo[3,2-b]pyridin-1-yl)-2,4-difluorophenyl)propane-1-sulfonamide monosuccinate salt in various media was measured in media at various pH values.
# [2] = Intrinsic dissolution rate, rotating disc method; assay type: physicochemical; settings: pH of medium 1.0 (0.1M HCl), 37° C.
# [3] = Sorption-desorption (DVS) of the salts with XRPD before and after; assay type: physicochemical
# Description: Dynamic Vapor Sorption (DVS) was performed in a IGAsorp Water Sorption Analyzer from Hiden Isochema. Adsorption and desorption isotherms were performed at 25° C. with 10% RH step intervals ranging from 0% relative humidity up to 90% relative humidity.
# [4] = Milling and compression stress followed by XRPD; assay type: physicochemical
# Description: FIG. 20 is a plot of the XRPD of N-(3-(5-((1-ethylpiperidin-4-yl)(methyl)amino)-3-(pyrimidin-5-yl)-1H-pyrrolo[3,2-b]pyridin-1-yl)-2,4-difluorophenyl)propane-1-sulfonamide monohydrochloride salt following milling in a swing mill for 10 min. at 30 rps.
# FIG. 21 is a plot of the XRPD of N-(3-(5-((1-ethylpiperidin-4-yl)(methyl)amino)-3-(pyrimidin-5-yl)-1H-pyrrolo[3,2-b]pyridin-1-yl)-2,4-difluorophenyl)propane-1-sulfonamide monohydrochloride salt following compression at 2000 N for 1 s to a tablet (diameter-5 mm).
# FIG. 31 is a plot of the XRPD of N-(3-(5-((1-ethylpiperidin-4-yl)(methyl)amino)-3-(pyrimidin-5-yl)-1H-pyrrolo[3,2-b]pyridin-1-yl)-2,4-difluorophenyl)propane-1-sulfonamide monosuccinate salt following milling in a swing mill for 10 min. at 30 rps.
# FIG. 32 is a plot of the XRPD of N-(3-(5-((1-ethylpiperidin-4-yl)(methyl)amino)-3-(pyrimidin-5-yl)-1H-pyrrolo[3,2-b]pyridin-1-yl)-2,4-difluorophenyl)propane-1-sulfonamide monosuccinate salt following compression at 2000 N for 1 s to a tablet (diameter-5 mm).
# [5] = Pharmacokinetics following oral administration to rats; assay type: in vivo, HsdHan:WIST Norway rats; settings: rat; for AUD: AUD range 0-6 h; for concentration at 24 h: mean n = 3, read-out: Blood Plasma Concentrations
# Description: The pharmacokinetics of N-(3-(5-((1-ethylpiperidin-4-yl)(methyl)amino)-3-(pyrimidin-5-yl)-1H-pyrrolo[3,2-b]pyridin-1-yl)-2,4-difluorophenyl)propane-1-sulfonamide hydrochloride salt and N-(3-(5-((1-ethylpiperidin-4-yl)(methyl)amino)-3-(pyrimidin-5-yl)-1H-pyrrolo[3,2-b]pyridin-1-yl)-2,4-difluorophenyl)propane-1-sulfonamide […] following oral administration at 40 mg and 80 mg (dose calculated as the free base) to HsdHan:WIST Norway rats. Each salt was administered to 3 animals.
# [6] = Equilibrium solubility in various aqueous media (solubility after 2 h); assay type: physicochemical; settings: thermodynamic from solid
# Description: Saturated solutions are prepared in well plates by adding an appropriate volume of selected aqueous media (typically in the range of 0.25-1.5 mL) into each well which contains a known quantity of solid drug substance (typically in the range 0.5-5.0 mg). The wells are shaken or stirred for a predefined time period (typically in a range of 2-24 h) and then filtered using appropriate filter membranes (typically PTFE-filters with 0.45 μm pore size). Filter absorption is avoided by discarding the first few drops of filtrate. The amount of dissolved drug substance is determined by UV spectroscopy. In addition, the pH of the aqueous saturated solution is measured using a glass-electrode pH meter.
# The equilibrium solubility of N-(3-(5-((1-Ethylpiperidin-4-yl)(methyl)amino)-3-(pyrimidin-5-yl)-1H-pyrrolo[3,2-b]pyridin-1-yl)-2,4-difluorophenyl)propane-1-sulfonamide monohydrochloride salt in various media was determined.
# The solubility of N-(3-(5-((1-Ethylpiperidin-4-yl)(methyl)amino)-3-(pyrimidin-5-yl)-1H-pyrrolo[3,2-b]pyridin-1-yl)-2,4-difluorophenyl)propane-1-sulfonamide monosuccinate salt in various media was determined.
# [7] = HsdHan:WIST, plasma, 40 mg/kg oral
smiles,measurement,setting,value
"CCCS(=O)(=O)Nc1ccc(F)c(-n2cc(-c3cncnc3)c3nc(N(C)C4CCN(CC)CC4)ccc32)c1F.Cl [Monohydrochloride Salt, N-(3-(5-((1-Ethylpiperidin-4-yl)(methyl)amino)-3-(pyrimidin-5-yl)-1H-pyrrolo[3,2-b]pyridin-1-yl)-2,4-difluorophenyl)propane-1-sulfonamide monohydrochloride salt]",Intrinsic Dissolution Rate,"[1]; pH of medium 2.2, 37° C.",121 μg/cm^2/min.
same,Intrinsic Dissolution Rate,"[1]; pH of medium 3.0, 37° C.",80 μg/cm^2/min.
same,Intrinsic Dissolution Rate,"[1]; pH of medium 4.5, 37° C.",38 μg/cm^2/min.
same,Intrinsic Dissolution Rate,"[1]; pH of medium 6.8, 37° C.",15 μg/cm^2/min.
same,Intrinsic Dissolution Rate,"[1]; pH of medium 7.4, 37° C.",3 μg/cm^2/min.
same,Intrinsic Dissolution Rate,[2],4 μg/cm^2/min.
same,Change in structure (XRPD) after sorption-desorption experiment,[3]; XRPD before and after,no significant change in structure occurred
same,Reversible weight gain (isotherm sorption-desorption),[3]; range from 0-80% relative humidity,approximately 2.5%
same,Reversible weight gain (isotherm sorption-desorption),[3]; range from 0-90% relative humidity,approximately 400%
same,Weight gain (sorption-desorption),"[3]; range from 10-90% relative humidity, scale-up sample",approximately 2.4%
same,Crystallinity and polymorphic form after compression (XRPD),[4]; 2000 N for 1 s to a tablet (diameter 5 mm),slight decrease in crystallinity but no change in polymorphic form
same,Crystallinity and polymorphic form after milling (XRPD),[4]; swing mill for 10 min. at 30 rps,significant decrease in crystallinity but no change in polymorphic form
same,AUD,[5]; 40 mg/kg oral,0.312 µM·h
same,AUD,[5]; 80 mg/kg oral,1.04 µM·h
same,Cmax,"[5]; HsdHan:WIST, in vivo, 80 mg/kg oral",419 nM
same,bioavailability,"[5]; HsdHan:WIST, plasma, po, 40 mg/kg dose",1%
same,Cmax,[5]; [7],123 nM
same,Tmax,[5]; [7],3.3 h
same,Tmax,"[5]; HsdHan:WIST, plasma, 80 mg/kg oral",4 h
same,concentration at 24 h,"[5]; Time 0.5, 40 mg/kg oral",3.53 nM
same,concentration at 24 h,"[5]; Time 1.0, 40 mg/kg oral",6.56 nM
same,concentration at 24 h,"[5]; Time 1.0, 80 mg/kg oral",3.69 nM
same,concentration at 24 h,"[5]; Time 2.0, 40 mg/kg oral",107 nM
same,concentration at 24 h,"[5]; Time 2.0, 80 mg/kg oral",69.9 nM
same,concentration at 24 h,"[5]; Time 4.0, 40 mg/kg oral",60.9 nM
same,concentration at 24 h,"[5]; Time 4.0, 80 mg/kg oral",419 nM
same,concentration at 24 h,"[5]; Time 6.0, 40 mg/kg oral",13.3 nM
same,concentration at 24 h,"[5]; Time 6.0, 80 mg/kg oral",69 nM
same,solubility at 2 h,"[6]; 0.01 M HCl, simulated gastric fluid, HCl (0.01M)",20 µg/mL
same,solubility at 2 h,"[6]; 0.1 M HCl, simulated gastric fluid, HCl (0.1M)",60 µg/mL
same,solubility at 2 h,"[6]; aqueous buffer, 0.1M Citric acid",400 µg/mL
same,solubility at 2 h,"[6]; aqueous buffer, 0.1M NaOH",> 10000 µg/mL
same,solubility at 2 h,"[6]; aqueous buffer, Acetate Buffer (pH 5.0)",200 µg/mL
same,solubility at 2 h,"[6]; aqueous buffer, McIlvaine Buffer (pH 2.2)",400 µg/mL
same,solubility at 2 h,"[6]; aqueous buffer, McIlvaine Buffer (pH 3.0)",200 µg/mL
same,solubility at 2 h,"[6]; aqueous buffer, McIlvaine Buffer (pH 4.0)",100 µg/mL
same,solubility at 2 h,"[6]; aqueous buffer, McIlvaine Buffer (pH 4.5)",200 µg/mL
same,solubility at 2 h,"[6]; aqueous buffer, McIlvaine Buffer (pH 5.0)",200 µg/mL
same,solubility at 2 h,"[6]; aqueous buffer, McIlvaine Buffer (pH 6.0)",100 µg/mL
same,solubility at 2 h,"[6]; aqueous buffer, McIlvaine Buffer (pH 6.8)",100 µg/mL
same,solubility at 2 h,"[6]; aqueous buffer, McIlvaine Buffer (pH 7.4)",10 µg/mL
same,solubility at 2 h,"[6]; aqueous buffer, Phosphate Buffer (pH 6.8)",200 µg/mL
same,solubility at 2 h,"[6]; aqueous buffer, Sorensen Buffer (pH 9.0)",10 µg/mL
same,solubility at 2 h,"[6]; aqueous buffer, Sorensen Buffer (pH 11)",700 µg/mL
same,solubility at 2 h,[6]; Simulated intestinal fluid (FaSSIF),2 µg/mL
same,solubility at 2 h,[6]; Simulated intestinal fluid (FeSSIF),30 µg/mL
same,solubility at 2 h,[6]; water,100 µg/mL
